{"source": "PubChem BioAssay AID1259409", "about": "(Chemical Carcinogenesis Research Information System (CCRIS), 2018)", "origin": "cited, not measured here", "test_system": "rodent chemically induced tumor inhibition, incidence and multiplicity", "test": "CCRIS tumor inhibitor studies", "settings": "Carcinogen: BENZO[A]PYRENE, 50-32-8, Dose [Inhibitor]: 0, Route [Inhibitor]: DERMAL, Species: MOUSE, Strain/Sex: CD-1/FEMALE, Target Tissue: Type of Lesion: SKIN: PAPILLOMA, Dose [Carcinogen]: 20 NMOL IN 0.2 ML ACETONE 1/WK FOR 10 WK, Promoter: 12-O-TETRADECANOYLPHORBOL-13-ACETATE, 16561-29-8", "data": [{"smiles": "CC(/C=C/C=C(\\C)C(=O)O)=C\\C=C\\C=C(C)\\C=C\\C=C(/C)C(=O)O", "values": [{"measurement": "tumour outcome (control, treated, inhibition, significance)", "setting": "0.2 UMOL IN 0.2 ML ACETONE 2/WK FOR 20 WK ADMINISTERED CONCURRENTLY WITH PROMOTER (STUDY DURATION: 21 WK)", "result": "100%, 53%, 47%, not calculated"}, {"measurement": "tumour outcome (control, treated, inhibition, significance)", "setting": "1 UMOL IN 0.2 ML ACETONE 2/WK FOR 20 WK ADMINISTERED CONCURRENTLY WITH PROMOTER (STUDY DURATION: 21 WK)", "result": "100%, 28%, 72%, not calculated"}]}]}
